Measurements published in ChEMBL document CHEMBL3244164, “Synthesis and analgesic activity of 1,3-dihydro-3-(substituted phenyl)imidazo[4,5-b]pyridin-2-ones and 3-(substituted phenyl)-1,2,3-triazolo[4,5-b]pyridines” (J Med Chem, 1978).

Tests used:
Rattus norvegicus [1] = assay: Analgesic activity in Sprague-Dawley rat brewer's yeast treated foot assessed as response threshold at 32 mg/kg, po; format: functional
Rattus norvegicus [2] = assay: Analgesic activity in Sprague-Dawley rat normal foot assessed as response threshold at 32 mg/kg, po; format: functional

| SMILES | Activity (Rattus norvegicus [1]) | Activity (Rattus norvegicus [2]) |
| --- | --- | --- |
| O=c1[nH]c2cccnc2n1-c1ccccc1Br | 25 mm | <40 mm |
| O=c1[nH]c2cccnc2n1-c1ccc2c(c1)COC2 | <25 mm | <40 mm |
| CN(C)c1ccccc1-n1nnc2cccnc21 | <25 mm | <40 mm |
| COc1ccc(-n2nnc3cccnc32)cc1OC | <25 mm | <40 mm |
| COc1cccc(-n2nnc3cccnc32)c1 | <25 mm | <40 mm |
| O=c1n(C2=NCCS2)c2cccnc2n1-c1ccc2c(c1)OCO2 | <25 mm | <40 mm |
| CC(=O)OCn1c(=O)n(-c2ccc3c(c2)OCO3)c2ncccc21 | <25 mm | <40 mm |
| O=c1[nH]c2cccnc2n1-c1cccc2c1CCCC2 | <25 mm | <40 mm |
| Fc1cccc(F)c1-n1nnc2cccnc21 | 25 mm | <40 mm |
| c1cnc2c(c1)nnn2-c1ccc2c(c1)COC2 | <25 mm | <40 mm |
| CC(=O)Oc1ccccc1C(=O)O [ASPIRIN] | 25 mm | <40 mm |
| Cc1oc2ccc(-n3nnc4cccnc43)cc2c1C | <25 mm | <40 mm |
| O=c1n(-c2ccc3c(c2)OCO3)c2ncccc2n1C(F)(F)C(F)Cl (stereo not drawn) | <25 mm | <40 mm |
| CCOC(=O)Cn1c(=O)n(-c2ccc3c(c2)OCO3)c2ncccc21 | <25 mm | <40 mm |
| O=c1[nH]c2cccnc2n1-c1ccc2c(c1)OCCO2 | <25 mm | <40 mm |
| CC(=O)Cn1c(=O)n(-c2ccc3c(c2)OCO3)c2ncccc21 | <25 mm | <40 mm |
| c1cnc2c(c1)nnn2Cc1ccc2c(c1)OCO2 | <25 mm | <40 mm |
| O=c1[nH]c2cccnc2n1-c1ccc(Cl)cc1Cl | 25 mm | <40 mm |
| CCCCNC(=O)n1c(=O)n(-c2ccc3c(c2)OCO3)c2ncccc21 | <25 mm | <40 mm |
| COc1cc(-n2c(=O)[nH]c3cccnc32)ccc1C | <25 mm | <40 mm |
| Clc1ccc(-n2nnc3cccnc32)cc1Cl | <25 mm | <40 mm |
| Cc1ccc(F)c(-n2c(=O)[nH]c3cccnc32)c1 | <25 mm | 40 mm |
| O=c1n(C/C=C/c2ccccc2)c2cccnc2n1-c1ccc2c(c1)OCO2 | <25 mm | <40 mm |

| SMILES | Activity (Rattus norvegicus [1]) | Activity (Rattus norvegicus [2]) |
| --- | --- | --- |
| CC(C)=O.O=C(Cn1c(=O)n(-c2ccc3c(c2)OCO3)c2ncccc21)c1ccccc1 | <25 mm | 40 mm |
| c1ccc(CCn2nnc3cccnc32)cc1 | <25 mm | <40 mm |
| COc1ccc(-n2c(=O)[nH]c3cccnc32)cc1 | <25 mm | <40 mm |
| O=c1[nH]c2cccnc2n1-c1cc2c(cc1[N+](=O)[O-])OCO2 | <25 mm | <40 mm |
| c1ccc(-c2nc3cccnc3n2-c2ccc3c(c2)OCO3)cc1 | <25 mm | <40 mm |
| CCC(C)n1c(=O)n(-c2ccc3c(c2)OCO3)c2ncccc21 (stereo not drawn) | <25 mm | <40 mm |
| CC(=O)n1c(=O)n(-c2ccc3c(c2)OCO3)c2ncccc21 | 25 mm | 40 mm |
| O=C(O)c1cnc2c(c1)[nH]c(=O)n2-c1ccc2c(c1)OCO2 | <25 mm | <40 mm |
| CC1(C)Oc2ccc(-n3nnc4cccnc43)cc2O1 | <25 mm | <40 mm |
| COc1cc(-n2c(=O)[nH]c3cccnc32)cc(OC)c1OC | <25 mm | <40 mm |
| Cc1cccc(-n2c(=O)[nH]c3cccnc32)n1 | <25 mm | <40 mm |
| Clc1ccc(-n2nnc3cccnc32)cc1 | <25 mm | <40 mm |
| Cc1ccc(-n2c(=O)[nH]c3cccnc32)cc1C | <25 mm | <40 mm |
| O=c1n(-c2ccc3c(c2)OCO3)c2ncccc2n1S(=O)(=O)C(F)(F)F | <25 mm | <40 mm |
| Fc1ccccc1-n1nnc2cc(Cl)cnc21 | 25 mm | <40 mm |
| CC(C)CCn1c(=O)n(-c2ccc3c(c2)OCO3)c2ncccc21 | <25 mm | <40 mm |
| CN(C)CCCn1c(=O)n(-c2ccc3c(c2)OCO3)c2ncccc21 | <25 mm | <40 mm |
| O=c1[nH]c2cccnc2n1CCc1ccccc1 | <25 mm | <40 mm |
| CCc1ccc(-n2nnc3cccnc32)cc1 | <25 mm | <40 mm |
| O=c1[nH]c2cccnc2n1-c1cccc2c1OCO2 | <25 mm | <40 mm |
| O=C(O)Cc1ccc(-n2c(=O)[nH]c3cccnc32)cc1 | <25 mm | <40 mm |
| Cc1ccc(-n2nnc3cccnc32)c(C)c1 | <25 mm | <40 mm |
| O=C(O)c1ccc(-n2c(=O)[nH]c3cccnc32)cc1 | <25 mm | <40 mm |

| SMILES | Activity (Rattus norvegicus [1]) | Activity (Rattus norvegicus [2]) |
| --- | --- | --- |
| COC(=O)c1cnc2c(c1)nnn2-c1ccccc1F | <25 mm | <40 mm |
| Oc1ccccc1-n1nnc2cccnc21 | <25 mm | <40 mm |
| Fc1ccc(-n2nnc3cccnc32)cc1 | <25 mm | <40 mm |
| C=CCn1c(=O)n(-c2cccc(C(=O)OCC)c2)c2ncccc21 | <25 mm | <40 mm |
| c1cnc2c(c1)nnn2-c1ccncc1 | <25 mm | <40 mm |
| O=c1[nH]c2cccnc2n1Cc1ccc(F)cc1 | <25 mm | <40 mm |
| O=c1[nH]c2cccnc2n1-c1ccc2c(c1)COCO2 | <25 mm | <40 mm |
| Brc1ccccc1-n1nnc2cccnc21 | 25 mm | <40 mm |
| C=CCn1c(=O)n(-c2ccccc2F)c2ncncc21 | <25 mm | <40 mm |
| O=c1n(Cc2ccccc2)c2cccnc2n1-c1ccc2c(c1)OCO2 | <25 mm | <40 mm |
| O=c1[nH]c2cccnc2n1-c1c(F)cccc1F | <25 mm | <40 mm |
| CC(=O)c1ccc(-n2nnc3cccnc32)cc1 | <25 mm | <40 mm |
| CC(C)=CCn1c(=O)n(-c2ccc3c(c2)OCO3)c2ncccc21 | <25 mm | <40 mm |
| O=C(C1CC1)n1c(=O)n(-c2ccc3c(c2)OCO3)c2ncccc21 | <25 mm | <40 mm |
| C=CCn1c(=O)n(-c2ccc3c(c2)OCO3)c2ncccc21.CI | <25 mm | <40 mm |
| O=c1[nH]c2cccnc2n1-c1ccccc1F | 25 mm | <40 mm |
| O=c1[nH]c2cccnc2n1C1CCCCC1 | <25 mm | <40 mm |
| Cc1cccc(C)c1-n1c(=O)[nH]c2cccnc21 | 25 mm | <40 mm |
| N#Cc1ccccc1-n1nnc2cccnc21 | 25 mm | <40 mm |
| O=c1[nH]c2cccnc2n1-c1ccc(Cl)cc1 | <25 mm | <40 mm |
| NC(=O)c1ccccc1-n1nnc2cccnc21 | 25 mm | <40 mm |
| C=CCn1c(=O)n(-c2ccc3c(c2)OC2(CCCCC2)O3)c2ncccc21 | <25 mm | 40 mm |
| Cc1cnc2c(c1)[nH]c(=O)n2-c1ccccc1F | 25 mm | <40 mm |

| SMILES | Activity (Rattus norvegicus [1]) | Activity (Rattus norvegicus [2]) |
| --- | --- | --- |
| CCOC(=O)c1cccc(-n2nnc3cccnc32)c1 | <25 mm | <40 mm |
| O=c1n(CC2CO2)c2cccnc2n1-c1ccc2c(c1)OCO2 (stereo not drawn) | <25 mm | <40 mm |
| FC(F)(F)c1cccc(-n2nnc3cccnc32)c1 | 25 mm | <40 mm |
| Fc1cccc(-n2nnc3cccnc32)c1 | <25 mm | <40 mm |
| O=c1[nH]c2cccnc2n1-c1ccc(F)cc1 | 25 mm | 40 mm |
| CC(C)Cc1ccc(-n2c(=O)[nH]c3cccnc32)cc1 | <25 mm | <40 mm |
| CC1(C)Oc2ccc(-n3c(=O)[nH]c4cccnc43)cc2O1 | <25 mm | <40 mm |
| N#Cc1cccc(-n2nnc3cccnc32)c1 | <25 mm | <40 mm |
| CC(C)c1ccccc1-n1c(=O)[nH]c2cccnc21 | <25 mm | <40 mm |
| C=CCn1c(=O)n(-c2cccc3c2CCCC3)c2ncccc21 | <25 mm | <40 mm |
| O=c1[nH]c2cccnc2n1-c1ccc2c(c1)CCC2 | <25 mm | <40 mm |
| COc1ccc(-n2nnc3cccnc32)c(OC)c1 | <25 mm | <40 mm |
| CCc1ccc(-n2c(=O)[nH]c3cccnc32)cc1 | <25 mm | <40 mm |
| C=CCn1c(=O)n(-c2ccccc2F)c2ncccc21 | 25 mm | <40 mm |
| c1cnc2c(c1)nnn2-c1ccc2c(c1)OCO2 | 25 mm | 40 mm |
| CC(=O)Nc1ccc(-n2nnc3cccnc32)cc1 | <25 mm | <40 mm |
| CC(C)Cc1ccc(-n2nnc3cccnc32)cc1 | <25 mm | <40 mm |
| C=CC(C)n1c(=O)n(-c2ccc3c(c2)OCO3)c2ncccc21 (stereo not drawn) | <25 mm | <40 mm |
| C=CCn1c(=O)n(-c2ccc(OC)c(OC)c2)c2ncccc21 | <25 mm | <40 mm |
| C=C=Cn1c(=O)n(-c2ccc3c(c2)OCO3)c2ncccc21 | <25 mm | <40 mm |
